Test [1] has as its system MV4-11 cells. As to the kind of experiment: Cell proliferation assay (ATPlite). The class given is cell-based. The following applies: Homo sapiens, 120 h; MV4-11 cells, five days; read-out: GI MV411 EC50. The method in brief: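 ATPlite luminescence after five days' culture (37° C, 5% CO2) gives viability. Compounds dosed in 10 concentrations up to 10 μM against DMSO; 1,000 cells/well seeded in Alpha-MEM/10% FBS.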

Test [2] deals with T1, WDR5 (Homo sapiens, UniProt P61964). Nature of the test: Fluorescence Polarization (FP) binding assay. The method in brief: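 Buffer was pH 6.5 sodium phosphate (80 mM) with 20 mM KCl and 0.008% Triton X-100; 9-Ala-FAM probe at 20 nM used 0.05 μM WDR5 and 480/540 nm polarization, H3 (1-15) probe at 30 nM used 0.3 μM WDR5 and 485/528 nm. Quadruplicate data were hyperbola-fitted to give Kdisp.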

Test [3] has as its target T1, WDR5. Nature of the test: Surface Plasmon Resonance (SPR) assay. The format is binding. The arrangement: Full length WDR5 with an N-terminal His tag and C-terminal AviTag; His tag (N); made in house; host or cells: E. coli. The following applies: read-out: SPR Kd. The method in brief: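 Full-length biotinylated WDR5 (N-His, C-AviTag, E. coli) captured (~3000 RU) on streptavidin SA chip; Biacore T200. HBS-EP pH 7.4 plus 5% DMSO running buffer, 40 μl/min.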

As to `CNC(=O)c1cc(-c2c(F)cc(N3C[C@@H](C)N(C)[C@@H](C)C3)c(NC(=O)c3c[nH]c(=O)cc3C(F)(F)F)c2F)ccc1F` [Example 29, 6-Oxo-N-(2,4′,6-trifluoro-3′-(methylcarbamoyl)-4-((3S,5R)-3,4,5-trimethylpiperazin-1-yl)-[1,1′-biphenyl]-3-yl)-4-(trifluoromethyl)-1,6-dihydropyridine-3-carboxamide], the concentration giving a half-maximal response (EC50) – broadly, the concentration needed to bring the measured effect to its halfway point – in test [1] came to 1110 nM. The 50% inhibitory concentration (IC50) (usually the concentration that gives 50% inhibition) in test [2] worked out at 22.4 nM. Further, in test [3], the Kd (commonly the constant that tells how readily two partners part at equilibrium) is 3.9 nM.
For the molecule `CC(C)[C@H]1CN(c2ncc(-c3c(F)cc(N4CCN(C)[C@@H](C)C4)c(NC(=O)c4c[nH]c(=O)cc4C(F)(F)F)c3F)cn2)CCO1` [Example 102, N-(6-((S)-3,4-dimethylpiperazin-1-yl)-2,4-difluoro-3-(2-((S)-2-isopropylmorpholino)pyrimidin-5-yl)phenyl)-6-oxo-4-(trifluoromethyl)-1,6-dihydropyridine-3-carboxamide], the EC50 in test [1] came to 14.3 nM. Moreover, in test [2], the 50% inhibitory concentration (IC50) was determined as 11.7 nM. In test [3], the Kd came out at 0.44 nM.
For `C[C@@H]1CN(c2cc(F)c(C3=CCN(C(=O)OC4CC(F)(F)C4)CC3)c(F)c2NC(=O)c2c[nH]c(=O)cc2C(F)(F)F)C[C@H](C)N1C` [Example 135, 3,3-Difluorocyclobutyl 4-(2,6-difluoro-3-(6-oxo-4-(trifluoromethyl)-1,6-dihydropyridine-3-carboxamido)-4-((3S,5R)-3,4,5-trimethylpiperazin-1-yl)phenyl)-5,6-dihydropyridine-1(2H)-carboxylate], in that order: 67.4 nM, 12.5 nM and 2.31 nM.
Turning to `C[C@H]1CN(c2ncc(-c3c(F)cc(N4CCN(C)[C@@H](C)C4)c(NC(=O)c4c[nH]c(=O)cc4C(F)F)c3F)cn2)CCO1` [Example 126, 4-(Difluoromethyl)-N-(6-((S)-3,4-dimethylpiperazin-1-yl)-2,4-difluoro-3-(2-((S)-2-methylmorpholino)pyrimidin-5-yl)phenyl)-6-oxo-1,6-dihydropyridine-3-carboxamide], in test [1], the EC50 is 11.8 nM. In addition, the IC50 in test [2] was 11.8 nM. Also, in test [3], the Kd came to 0.56 nM.
Turning to `C[C@H]1CN(c2ncc(-c3c(F)cc(N4CCN(C)[C@@H](C)C4)c(NC(=O)c4c[nH]c(=O)cc4C(F)(F)F)c3F)cn2)C[C@H](C)O1` [Example 87, N-(3-(2-((2S,6S)-2,6-dimethylmorpholino)pyrimidin-5-yl)-6-((S)-3,4-dimethylpiperazin-1-yl)-2,4-difluorophenyl)-6-oxo-4-(trifluoromethyl)-1,6-dihydropyridine-3-carboxamide], the EC50 in test [1] was determined as 19.4 nM. Moreover, the concentration for half-maximal inhibition (IC50) in test [2] was 9.85 nM. The dissociation constant Kd in test [3] came out at 1.47 nM.
With `C[C@@H]1CN(c2cc(F)c(-c3cnc(N4CCOCC4)nc3)c(F)c2NC(=O)c2ccc(F)cc2C(F)F)C[C@H](C)N1C` [Example 31, N-(2,4-difluoro-3-(2-morpholinopyrimidin-5-yl)-6-((3S,5R)-3,4,5-trimethylpiperazin-1-yl)phenyl)-2-(difluoromethyl)-4-fluorobenzamideformic Acid], the half-maximal effective concentration (EC50) in test [1] was determined as 96.6 nM. In test [2], the IC50 was 19.6 nM. Besides, in test [3], the Kd stood at 1.04 nM.
Consider `C[C@H]1CN(c2cc(F)c(C3=CCN(C(=O)OC4CC(F)(F)C4)CC3)c(F)c2NC(=O)c2c[nH]c(=O)cc2C(F)F)CCN1C` [Example 42, 3,3-Difluorocyclobutyl (S)-4-(3-(4-(difluoromethyl)-6-oxo-1,6-dihydropyridine-3-carboxamido)-4-(3,4-dimethylpiperazin-1-yl)-2,6-difluorophenyl)-3,6-dihydropyridine-1(2H)-carboxylate], for which the EC50 in test [1] was 281 nM. Moreover, the 50% inhibitory concentration (IC50) in test [2] was found to be 11.2 nM. The dissociation constant (Kd) in test [3] turned out to be 2.38 nM.
For `C[C@@H]1CN(c2ccc(-c3c(F)cc(N4CCN(C)[C@@H](C)C4)c(NC(=O)c4c[nH]c(=O)cc4C(F)(F)F)c3F)cn2)C[C@H](C)O1` [Example 170, N-(3-(6-((2S,6R)-2,6-dimethylmorpholino)pyridin-3-yl)-6-((S)-3,4-dimethylpiperazin-1-yl)-2,4-difluorophenyl)-6-oxo-4-(trifluoromethyl)-1,6-dihydropyridine-3-carboxamide], in that order: 32.3 nM, 15.6 nM and 0.83 nM.
On the same counts, the results for `C[C@@H]1CN(c2cc(F)c(C3=CCN(C(=O)OC4CC(F)(F)C4)C3)c(F)c2NC(=O)c2c[nH]c(=O)cc2C(F)(F)F)C[C@H](C)N1C` [Example 136, 3,3-Difluorocyclobutyl 3-(2,6-difluoro-3-(6-oxo-4-(trifluoromethyl)-1,6-dihydropyridine-3-carboxamido)-4-((3S,5R)-3,4,5-trimethylpiperazin-1-yl)phenyl)-2,5-dihydro-1H-pyrrole-1-carboxylate] are 42 nM, 14.9 nM and 1.16 nM.
For `C[C@@H]1CN(c2nccc(-c3c(F)cc(N4CCN(C)[C@@H](C)C4)c(NC(=O)c4ccc(F)cc4C(F)F)c3F)n2)C[C@H](C)O1` [Example 32, 2-(Difluoromethyl)-N-(3-(2-((2S,6R)-2,6-dimethylmorpholino)pyrimidin-4-yl)-6-((S)-3,4-dimethylpiperazin-1-yl)-2,4-difluorophenyl)-4-fluorobenzamide Formic Acid], in that order: 286 nM, 33 nM and 5.07 nM.
For `C[C@@H]1CN(c2ncc(-c3c(F)cc(N4C[C@@H](C)N(C)[C@@H](C)C4)c(NC(=O)c4c[nH]c(=O)cc4C(F)F)c3F)cn2)CCO1` [Example 130, N-(2,4-difluoro-3-(2-((R)-2-methylmorpholino)pyrimidin-5-yl)-6-((3S,5R)-3,4,5-trimethylpiperazin-1-yl)phenyl)-4-(difluoromethyl)-6-oxo-1,6-dihydropyridine-3-carboxamide], the EC50 in test [1] amounted to 10.2 nM. Moreover, in test [2], the IC50 is 8.92 nM. The dissociation constant Kd in test [3] amounted to 0.55 nM.
For `C[C@@H]1CN(c2cc(F)c(-c3ccc(N4CCO[C@@H](C)C4)nc3)c(F)c2NC(=O)c2c[nH]c(=O)cc2C(F)(F)F)C[C@H](C)N1C` [Example 192, N-(2,4-difluoro-3-(6-((S)-2-methylmorpholino)pyridin-3-yl)-6-((3S,5R)-3,4,5-trimethylpiperazin-1-yl)phenyl)-6-oxo-4-(trifluoromethyl)-1,6-dihydropyridine-3-carboxamide], in that order: 70.1 nM, 16.4 nM and 0.97 nM.
For `C[C@@H]1CN(c2cc(F)c(C3=CCCN(C(=O)c4csc(CN(C)C)n4)C3)c(F)c2NC(=O)c2c[nH]c(=O)cc2C(F)(F)F)C[C@H](C)N1C` [Example 189, N-(3-(1-(2-((dimethylamino)methyl)thiazole-4-carbonyl)-1,2,5,6-tetrahydropyridin-3-yl)-2,4-difluoro-6-((3S,5R)-3,4,5-trimethylpiperazin-1-yl)phenyl)-6-oxo-4-(trifluoromethyl)-1,6-dihydropyridine-3-carboxamide], in that order: 487 nM, 12.7 nM and 1.51 nM.

Values taken from US20200385371A1 (Propellon Therapeutics Inc., priority 2017, published 2020).
